# Measured values: US20220389058A1, “PEPTIDES AND COMPOSITIONS FOR USE IN COSMETICS AND MEDICINE” (LIPOTRUE, S.L., priority 2019, published 2022)
# How the values were obtained:
# [1] = test system: HEKa cells; test: Expression of genes related to epidermal cell cohesion, RT-qPCR in HEKa (Example 9); assay type: cell-based, Human; conditions: 0.01 mg/mL, 24 hours
# Experimental: (§1) A stock solution of the peptide was prepared in water at 1 mg/mL. Working solution was freshly prepared at the specified concentration from stock solution in the corresponding supplemented medium.
# (§2) RNA (ribonucleic acid) extraction and RT-qPCR (reverse transcription quantitative polymerase chain reaction) were performed. Briefly, HEKa cells were seeded in duplicate (n=2) in 6-well plates at a density of 4×10^5 cells/well and maintained at standard culture conditions (Medium Epilife supplemented with 1% (v/v) EDGS and 1% (v/v) penicillin/streptomycin; 37° C., 95% room humidity, 5% CO2) for 24 hours.
# Then, cells were treated with peptide Ac-SEQ ID NO: 1-NH2, Ac-SEQ ID NO: 2-NH2 or Ac-SEQ ID NO: 3-NH2 at the concentration of 0.01 mg/mL for 24 hours. Untreated cells were used as basal or negative control.
# (§3) Cells were finally lysed, and replicates were pooled together for RNA extraction using Qiagen RNeasy Mini kit following manufacturer's instructions. Purified RNAs were used to generate the corresponding cDNAs (complementary deoxyribonucleic acids) by reverse transcription using a commercial kit High capacity cDNA reverse transcription kit (Applied Biosystems) which served as templates for amplification. RT-qPCR was performed with the panel of appropriate TaqMan assay probes for genes shown in table 1 (plus GAPDH—Glyceraldehyde 3-phosphate dehydrogenase—that was used as housekeeping gene) and 2×gene expression Master Mix using StepOne plus Real-Time PCR instrument. Amplification included 40 cycles of: 15 seconds at 95° C. (denaturation) and 1 minute at 60° C. (Annealing and extension) (Arya, M., Shergill, I. S., Williamson, M., Gommersall, L., Arya, N., Patel, H. R. (2005) Basic principles of real-time quantitative PCR. Expert Rev. Mol. Diagn.; 5(2):209-19; and Jozefczuk, J. and Adjaye, J. (2011) Quantitative real-time PCR-based analysis of gene expression. Methods Enzymol. 500; 99-109).
# (§4) The obtained data was analysed using the ΔΔCt method, which provides the target gene expression values as fold changes in the treated sample compared with an untreated basal sample. Both samples were normalized with the relative expression of a housekeeping gene GAPDH (Glyceraldehyde 3-phosphate dehydrogenase).
# [2] = test system: HEKa cells; test: Genes related with response to sleep deprivation, RT-qPCR in HEKa (Example 16); assay type: cell-based, Human; conditions: 0.01 mg/ml, 24 hours
# Experimental: as §1
# as §2, with “HEKa, HDFa or HUVEC” for “HEKa”, “cells/well (2×10^5 cells/well for HUVEC cells)” for “cells/well”, “(106 Medium supplemented with 1% (v/v) LSGS for HDFa cells; Medium” for “(Medium”, “penicillin/streptomycin for HEKa cells; Endothelial Cell Growth Medium for HUVEC cells;” for “penicillin/streptomycin;”
# Then, cells were treated with peptide Ac-SEQ ID NO: 1-NH2 at the concentration of 0.01 mg/mL for 24 hours. Untreated cells were used as basal or negative control.
# as §3, with “table 10” for “table 1”
# as §4
# [3] = test system: Human Epidermal Keratinocytes (HEKa); test: Innate antimicrobial immunity related genes, RT-qPCR in HEKa (Example 20); assay type: cell-based; conditions: 0.01 mg/mL, 6 h
# [4] = test system: HUVECs; test: Genes related with response to sleep deprivation, RT-qPCR in HUVEC (Example 16); assay type: cell-based, Human; conditions: 0.01 mg/ml, 24 hours
# Experimental: as §1
# RNA (ribonucleic acid) extraction and RT-qPCR (reverse transcription quantitative polymerase chain reaction) were performed. […]
# Cells were finally lysed, and replicates were pooled together for RNA extraction using Qiagen RNeasy Mini kit following manufacturer's instructions. […] (Annealing and extension) (Arya, M., Shergill, I. S., Williamson, M., Gommersall, L., Arya, N., Patel, H. R. (2005) Basic principles of real-time quantitative PCR. Expert Rev. Mol. Diagn.; 5(2):209-19; and Jozefczuk, J. and Adjaye, J. (2011) Quantitative real-time PCR-based analysis of gene expression. Methods Enzymol. 500; 99-109).
# The obtained data was analysed using the ΔΔCt method, which provides the target gene expression values as fold changes in the treated sample compared with an untreated basal sample. […]
# [5] = test system: human skin explants; test: Ex vivo fibrillin-1 immunostaining after methylglyoxal (Example 15); conditions: cream containing 1% Ac-SEQ ID NO: 1-NH2, topical 2 mg/cm^2; methylglyoxal 500 μM; day 9
# Experimental: Briefly, human skin explants from a person were kept in survival in BEM culture medium at 37° C. in a humid, 5% CO2 atmosphere. A placebo cream and a cream containing 1% Ac-SEQ ID NO: 1-NH2, prepared according to Example 6, were applied topically on the basis of 2 μL per explant (2mg/cm^2) and spread using a small spatula on day 0 (DO), day 1, day 4, day 6 and day 8. […] To induce glycation, a solution of Methylglyoxal (MG) was incorporated in the BEM culture medium at a final concentration of 500 μM on day 4, day 6 and day 8, on the concerned batches “MG” (all samples except control untreated samples). Explants were collected at each timepoint and cut in two parts. Half was fixed in buffered formalin solution and half was frozen at −80° C.
# The nuclei were counterstained with propidium iodide.
# [6] = Protein glycation (AGE formation), fluorimetric (Example 14); assay type: biochemical; conditions: 0.01, 0.05, 0.1 and 0.5 mg/mL; 72 hours at 37° C.; vs negative control
# Experimental: Briefly, 0.01, 0.05, 0.1 and 0.5 mg/mL of peptide Ac-SEQ ID NO: 1-NH2 were mixed together with a glycation agent and its corresponding substrate. Samples were incubated for 72 hours at 37° C. A fluorimetric method was used to evaluate the % of protein glycation compared to the negative control (sample only with sugar substrate).
substance,measurement,setting,value
Ac-Arg-Arg-Gln-Met-Arg-Glu-NH2 (Ac-RRQMRE-NH2) [Ac-SEQ ID NO: 1-NH2],CDSN Fold change between treated cells and basal control,[1],1.46 Fold change
same,CLDN1 Fold change between treated cells and basal control,[1],1.57 Fold change
same,CLDN4 Fold change between treated cells and basal control,[1],2.64 Fold change
same,DSC2 Fold change between treated cells and basal control,[1],1.23 Fold change
same,DSP Fold change between treated cells and basal control,[1],1.28 Fold change
same,JUP Fold change between treated cells and basal control,[1],1.42 Fold change
same,OCLN Fold change between treated cells and basal control,[1],1.98 Fold change
same,PCDH1 Fold change between treated cells and basal control,[1],2.41 Fold change
same,PKP2 Fold change between treated cells and basal control,[1],1.72 Fold change
same,PPL Fold change between treated cells and basal control,[1],1.54 Fold change
same,TJP1 Fold change between treated cells and basal control,[1],1.25 Fold change
same,CXCL8 Fold change between treated cells and basal control,[2],−1.33 Fold change
same,MTNR1A Fold change between treated cells and basal control,[2],2.11 Fold change
same,SIGIRR Fold change between treated cells and basal control,[2],1.27 Fold change
same,SLC2A1 Fold change between treated cells and basal control,[2],−1.21 Fold change
same,DEFB1 Fold change vs. Basal,[3],1.31 Fold change
same,DEFB4A Fold change vs. Basal,[3],1.58 Fold change
same,IRF1 Fold change vs. Basal,[3],1.25 Fold change
same,IRF3 Fold change vs. Basal,[3],1.54 Fold change
same,ISG15 Fold change vs. Basal,[3],1.38 Fold change
same,MX1 Fold change vs. Basal,[3],1.93 Fold change
same,OAS2 Fold change vs. Basal,[3],1.39 Fold change
same,S100A7 Fold change vs. Basal,[3],2.04 Fold change
same,NFKB1 Fold change between treated cells and basal control,[4],−1.24 Fold change
same,increase in fibrillin 1 staining when compared with the MG-exposed untreated control,[5],86%
same,protein glycation,[6],able to protect from protein glycation
